Experimental data published in patent publication US20140303199A1, “INHIBITORS OF RGS PROTEINS” (priority 2013, published 2014).
Where a name gives a salt, the structure may show the parent alone.

Experiments:
RGS4(WT) = molecular target: T1, RGS4(WT) (Rattus norvegicus, UniProt P49799); assay: Malachite green assay of RGS4-stimulated Gαi GTPase activity; format: biochemical; settings: for Mean absorbance at 642 nm, positive control wells: 10 μM final; for IC50 / Inhibition of RGS4 (in words): malachite green assay; for IC50: RGS4 200 nM final, concentration-response, read-out: IC50 against RGS4(WT); for Inhibition of RGS4 (in words): screen hits
T1 sequence (P49799 51-205): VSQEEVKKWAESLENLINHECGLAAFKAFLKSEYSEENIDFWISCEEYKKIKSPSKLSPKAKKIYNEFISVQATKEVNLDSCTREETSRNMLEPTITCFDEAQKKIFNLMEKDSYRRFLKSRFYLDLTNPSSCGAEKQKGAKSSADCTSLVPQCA
Experimental: Stock solutions of each of the 3 components of the developing solution were prepared, which were stable for long-term storage [19]. Malachite solution was prepared by first diluting concentrated sulfuric acid 1:5 in distilled water. Once the solution cooled to 25° C., malachite solution was prepared by dissolving 0.44 g of malachite green oxalate (Alfa Aesar; Ward Hill, Mass.) in 360 mL diluted acid and stored at 25° C. Molybdate solution, containing 7.5% ammonium molybdate tetrahydrate (Alfa Aesar; Ward Hill, Mass.), was prepared in distilled water and stored at 4° C. Tween-20 solution, used to maintain solubility of the phosphate-molybdate-malachite complex, was prepared as 11% (v/v) Tween-20 in distilled water. On the day of use, 2.5 mL molybdate solution and 0.2 mL Tween-20 solution were added to 10 mL of malachite solution and mixed quickly to avoid precipitation of malachite. The final ratio of the Developing Solution (DS) was 50:12.5:1 (malachite:molybdate:Tween-20). The peak absorbance was determined by a 2 nm step wavelength scan, using 50 μM NaH2PO4 at pH 8.0 as the negative control.
The malachite green assay involved 5 components, with a 1 min spin at 100×g between each addition. For time-course experiments, the first component was 10 μL Malachite Green Assay Buffer (MGB; 50 mM HEPES at pH 7.5, 100 mM NaCl, 5 mM EDTA, 10 mM MgCl2, 0.01% lubrol) into a clear 384-well plate (ThermoFisher Scientific; Waltham, Mass.) using a MultiDrop dispenser (PerkinElmer; Waltham, Mass.). The second component dispensed was 10 μL of a 4× stock of RGS4, typically 200 nM to 1.6 μM with the target final concentration of 50 nM to 400 nM, diluted in MGB. After a 30 min incubation, 10 μL of the third component, 4× stock of Gαi diluted in MGB, was dispensed (typically between 4 μM and 80 μM with a desired final concentration 1 μM to 20 μM). After a minimum of 5 min incubation, 10 μL of the fourth component, 4×GTP diluted in MGB, was added at 10 minute intervals from 1-110 minutes. 4×GTP concentrations varied between 0.2 mM and 2.4 mM, with a target final concentration of 50 μM to 600 μM. To terminate the reaction, 10 μL of DS was added to each well using a Microlab Star liquid handling robot (Hamilton Robotics; Reno, Nev.), to achieve a final ratio 4:1 (sample:developing solution). Following the spin, the plate was incubated for 25 min before being read at 642 nm for absorbance using an EnVision plate reader (PerkinElmer; Waltham, Mass.).
Malachite green compound activity and Z-factor analysis conducted in 384-well plates utilized optimized parameters as discerned from the time-course experiments. 10 μL of 4× compound or MGB was dispensed into appropriate wells. For single point assay, 160 μM compound was used, and for dose-response assays a series of ½ log dilutions from 100 μM final to 316 μM final was used. 10 μL of the optimized 4×RGS4 concentration, 0.8 μM in MGB, was dispensed into all wells. After a spin down at 100×g for 1 min, the assay plate was incubated at 25° C. for 30 min. 10 μL of the optimized Gαi concentration, 20 μM in MGB, was dispensed to each well and incubated at 25° C. for 5 min. 10 μL of the optimized 4×GTP, 600 μM in MGB, was then added to the samples. After spinning the samples down at 100×g for 1 min, the samples were incubated at 25° C. for 75 min. The samples were then stamped with 10 μL of DS and incubated for 25 min before reading absorbance at 642 nm.
1536-well Z-factor analysis and compound library screen were accomplished largely as described for 384-well plates. Initial screen and Z-factor determination was performed in a final concentration of 5.5% dimethylsulfoxide. For 1536-well assays NUNC clear plates were used (ThermoFisher Scientific; Waltham, Mass.). Each component was dispensed as 1.8 μL samples into each well using a FlexDrop (PerkinElmer; Waltham, Mass.).

RGS4(Δ7) mutant = molecular target: T2, RGS4(Δ7) mutant (Rattus norvegicus, UniProt P49799, C132A/C148A/C183A/C197A/C204A/C71A/C95A); assay: Malachite green assay counter screen against cysteine-null RGS4(Δ7) mutant; format: biochemical; settings: for IC50: concentration-response; for Inhibition of RGS4(Δ7) mutant (in words): screen hits
T2 construct: fused to the N-terminus of an RGS4 construct containing amino acids 51-205; 10x His tag (N, cleaved yes); TEV protease recognition site (N, cleaved yes); made in house; host or cells: E. coli BL21-DE3 (vector pMALC2H10T)
T2 sequence (P49799 51-205 C71A/C95A/C132A/C148A/C183A/C197A/C204A limits assumed): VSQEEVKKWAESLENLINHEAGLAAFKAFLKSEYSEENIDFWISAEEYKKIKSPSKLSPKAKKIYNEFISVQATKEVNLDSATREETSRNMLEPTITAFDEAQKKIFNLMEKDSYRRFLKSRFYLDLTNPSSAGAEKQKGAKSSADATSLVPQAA
Excerpt: Rat RGS4, sharing 97% sequence identity with human RGS4, and the cysteine to alanine mutant were expressed as fusion proteins of maltose binding protein (MBP), a 10× His tag, and a TEV protease recognition site fused to the N-terminus of an RGS4 construct containing amino acids 51-205, in the vector pMALC2H10T in BL21-DE3 bacteria (Stratagene; Santa Clara, Calif.). The single cysteine-null Δ51-RGS4 construct was generated by site-directed mutagenesis as described previously Expression and purification were performed as described previously. Purified protein was incubated with TEV protease at a molar ratio of 10:1 (fusion protein:TEV protease) overnight at 4° C. The cleaved Δ51-RGS4 was then isolated by purification over an ANX column (GE Healthcare; Fairfield, Conn.) in 50 mM HEPES at pH6.8 and 50 mM NaCl. The flow through, containing the ˜99% Δ51-RGS4 as determined by SDS-PAGE gel, was then collected and concentrated using a YM-10 centrifugal concentrator (Millipore; Billerica, Mass.). The concentration of Δ51-RGS4 was calculated based on the absorbance at 280 nm utilizing a Take-3 plate (Biotek; Winnoski, Vt.) in a Synergy 2 plate reader (Biotek; Winnoski, Vt.).
Stock solutions of each of the 3 components of the developing solution were prepared, which were stable for long-term storage. Malachite solution was prepared by first diluting concentrated sulfuric acid 1:5 in distilled water. Once the solution cooled to 25° C., malachite solution was prepared by dissolving 0.44 g of malachite green oxalate (Alfa Aesar; Ward Hill, Mass.) in 360 mL diluted acid and stored at 25° C. Molybdate solution, containing 7.5% ammonium molybdate tetrahydrate (Alfa Aesar; Ward Hill, Mass.), was prepared in distilled water and stored at 4° C. Tween-20 solution, used to maintain solubility of the phosphate-molybdate-malachite complex, was prepared as 11% (v/v) Tween-20 in distilled water. On the day of use, 2.5 mL molybdate solution and 0.2 mL Tween-20 solution were added to 10 mL of malachite solution and mixed quickly to avoid precipitation of malachite. The final ratio of the Developing Solution (DS) was 50:12.5:1 (malachite:molybdate:Tween-20). The peak absorbance was determined by a 2 nm step wavelength scan, using 50 μM NaH2PO4 at pH 8.0 as the negative control.
Malachite green compound activity and Z-factor analysis conducted in 384-well plates utilized optimized parameters as discerned from the time-course experiments. 10 μL of 4× compound or MGB was dispensed into appropriate wells. For single point assay, 160 μM compound was used, and for dose-response assays a series of ½ log dilutions from 100 μM final to […] final was used. 10 μL of the optimized 4×RGS4 concentration, 0.8 μM in MGB, was dispensed into all wells. After a spin down at 100×g for 1 min, the assay plate was incubated at 25° C. for 30 min. 10 μL of the optimized Gαi concentration, 20 μM in MGB, was dispensed to each well and incubated at 25° C. for 5 min. 10 μL of the optimized 4×GTP, 600 μM in MGB, was then added to the samples. […] The samples were then stamped with 10 μL of DS and incubated for 25 min before reading absorbance at 642 nm.
Initial hits were confirmed by single point malachite green assay at 40 μM compound. […] This control would detect compounds that either interrupt the detected complex or reduce the molybdate resulting in peak shift outside of the desired wavelength. […] Compounds that increased the predicted absorbance were carried through, as they would indicate false negatives in the assay. […]

| SMILES | Mean absorbance at 642 nm, positive control wells (RGS4(WT); 384-well plate, 192 wells, negative control mean 1.74) | Mean absorbance at 642 nm, positive control wells (RGS4(WT); 1536-well plate, 5.5% DMSO, 128 wells, negative control mean 0.67) | IC50 (RGS4(WT)) [µM] | IC50 (RGS4(Δ7) mutant) [µM] | Inhibition of RGS4 (in words) (RGS4(WT)) | Inhibition of RGS4(Δ7) mutant (in words) (RGS4(Δ7) mutant) |
| --- | --- | --- | --- | --- | --- | --- |
| Cc1ccc(-n2sc(=O)n(Cc3ccc(F)cc3)c2=O)cc1 [CCG-50014, reference compound] | 0.92 | 0.30 |  |  |  |  |
| C[n+]1cc2c3c(ccc2c2ccc4cc5c(cc4c21)OCO5)OCO3 [UI-5, sanguinarium sulfate] |  |  | 126 | 454 |  |  |
| CC1=C(O)C(=O)C=C2C1=CC=C1[C@@]2(C)CC[C@@]2(C)[C@@H]3C[C@](C)(C(=O)O)CC[C@]3(C)CC[C@]12C [UI-1590, celastrol] |  |  | 0.724 | 88 |  |  |
| CC(C)=CCC[C@]1(C)C=Cc2c(O)c3c(c(CC=C(C)C)c2O1)O[C@]12C(=C[C@@H]4C[C@H]1C(C)(C)O[C@@]2(C/C=C(/C)C(=O)O)C4=O)C3=O [UI-1907, gambogic acid] |  |  | 16 | 51 | inhibitors | inhibitors |
| CC(=O)Oc1c2c(c(CC=C(C)C)c3c1C(=O)C1=C[C@@H]4C[C@H]5C(C)(C)OC(C/C=C(\C)C(=O)O)(C4=O)[C@@]15O3)O[C@](C)(CCC=C(C)C)C=C2 [UI-2034, acetyl-isogambogic acid] |  |  |  |  | inhibitors | inhibitors |
